Assay results reported in publication PMC9572541, “Design, Synthesis and Biological Evaluation of Novel and Potent Protein Arginine Methyltransferases 5 Inhibitors for Cancer Therapy” (Molecules, 2022).

The compounds below were run against T1, PRMT5 (Homo sapiens, UniProt O14744) (assay: PRMT5 enzymatic activity inhibition assay (radioactive methylation, 3H-SAM to H4R3 peptide)). Settings: 100 nM compound; read-out: Inhibition Rate% @100 nM.
T1 construct: The final concentrations of PRMT5 enzyme: 2.5 nm/L
T1 sequence (O14744 whole entry): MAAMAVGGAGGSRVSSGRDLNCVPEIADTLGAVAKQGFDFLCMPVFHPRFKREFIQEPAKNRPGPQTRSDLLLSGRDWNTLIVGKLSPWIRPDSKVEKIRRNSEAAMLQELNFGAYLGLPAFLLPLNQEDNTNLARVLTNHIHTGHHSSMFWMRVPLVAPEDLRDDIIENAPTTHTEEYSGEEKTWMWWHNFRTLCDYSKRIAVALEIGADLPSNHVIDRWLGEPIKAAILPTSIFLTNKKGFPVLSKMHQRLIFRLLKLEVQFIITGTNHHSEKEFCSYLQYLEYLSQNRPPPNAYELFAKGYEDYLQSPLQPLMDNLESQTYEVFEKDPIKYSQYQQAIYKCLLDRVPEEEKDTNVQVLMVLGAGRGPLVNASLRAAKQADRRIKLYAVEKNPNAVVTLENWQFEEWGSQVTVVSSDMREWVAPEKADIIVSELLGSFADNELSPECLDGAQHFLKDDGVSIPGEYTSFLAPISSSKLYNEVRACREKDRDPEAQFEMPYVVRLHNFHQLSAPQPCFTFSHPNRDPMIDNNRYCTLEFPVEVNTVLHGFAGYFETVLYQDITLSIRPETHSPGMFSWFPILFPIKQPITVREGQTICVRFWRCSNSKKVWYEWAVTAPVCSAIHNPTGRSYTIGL
T1 sequence (Q9BQA1 whole entry partner): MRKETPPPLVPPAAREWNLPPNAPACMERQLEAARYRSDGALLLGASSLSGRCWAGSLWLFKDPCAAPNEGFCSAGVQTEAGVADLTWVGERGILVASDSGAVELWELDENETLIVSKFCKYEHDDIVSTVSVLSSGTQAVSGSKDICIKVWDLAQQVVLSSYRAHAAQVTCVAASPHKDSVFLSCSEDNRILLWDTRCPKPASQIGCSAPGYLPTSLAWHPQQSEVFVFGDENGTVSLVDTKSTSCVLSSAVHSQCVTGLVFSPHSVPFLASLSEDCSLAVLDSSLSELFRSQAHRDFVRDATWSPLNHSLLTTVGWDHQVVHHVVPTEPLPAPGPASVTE
Type: biochemical
Method: The PRMT5 enzymatic activity assay was conducted by Chempartner Life science. The final concentrations of PRMT5 enzyme: 2.5 nm/L; ^3H-SAM: 0.3 μM/L; histone peptide (H4R3S1ac): 0.3 μM/L. The protocol of radioactive methylation assay was as follows: (1) Prepare 1× assay buffer (modified Tris Buffer). (2) Transfer compounds to assay plate using Echo in 100% DMSO. DMSO’s final fraction is 1%. (3) Prepare enzyme and ^3H-SAM Mix solution in 1× assay buffer. (4) Prepare substrate (peptide sequence Ac-[…]-K(Biotin)) solution in 1× assay buffer. (5) Transfer 15 μL of enzyme and ^3H-SAM solution to assay plate. (6) Incubate at room temperature for 60 min. (7) Add 10 μL of substrate solution to each well to start the reaction, and for low control transfer 10 μL of 1× assay buffer. (8) Incubate at room temperature for 120 min. (9) Add cold SAM in 1× assay buffer to make the stop mix. (10) Stop reaction with addition of 5 µL per well of stop solution. (11) Transfer 25 µL of volume per well to Flash plate from assay plate. (12) Incubate for 1 h minimum at room temperature.
(13) Read plate on Micro beta. (14) Data process—get the data in Excel to obtain inhibition values using Equation (1).Inhibitory rate% = (Max-Signal)/ (Max-Min) × 100(1)
Fit the data in XL-Fit to obtain IC50 values using Equation (2): Y = Bottom + (Top-Bottom)/(1 + (IC50/X) […]) Y is% inhibition and X is compound concentration(2)

Row | inhibition at 0.1 µM [%] | SMILES
1 | 59 ± 0.4 | Cc1ccc2[nH]c3ccc(C(=O)NC[C@H](O)CN4CCc5ccccc5C4)cc3c2c1 [Compound 2, (S)-N-(3-(3,4-dihydroisoquinolin-2(1H)-yl)-2-hydroxypropyl)-6-methyl-9H-carbazole-3-carboxamide]
2 | 65 ± 0.2 | O=C(NC[C@H](O)CN1CCc2ccccc2C1)c1ccc2[nH]c3ccc(F)cc3c2c1 [Compound 3, (S)-N-(3-(3,4-dihydroisoquinolin-2(1H)-yl)-2-hydroxypropyl)-6-fluoro-9H-carbazole-3-carboxamide]
3 | 64 ± 1.5 | COc1ccc2[nH]c3ccc(C(=O)NC[C@H](O)CN4CCc5ccccc5C4)cc3c2c1 [Compound 4, (S)-N-(3-(3,4-dihydroisoquinolin-2(1H)-yl)-2-hydroxypropyl)-6-methoxy-9H-carbazole-3-carboxamide]
4 | 69 ± 7 | O=C(NC[C@H](O)CN1CCc2ccccc2C1)c1ccc2[nH]c3ccc(Cl)cc3c2c1 [Compound 5, (S)-6-chloro-N-(3-(3,4-dihydroisoquinolin-2(1H)-yl)-2-hydroxypropyl)-9H-carbazole-3-carboxamide]
5 | 63 ± 3.2 | Cn1c2ccccc2c2cc(C(=O)NC[C@H](O)CN3CCc4ccccc4C3)ccc21 [Compound 6, (S)-N-(3-(3,4-dihydroisoquinolin-2(1H)-yl)-2-hydroxypropyl)-9-methyl-9H-carbazole-3-carboxamide]
6 | 74 ± 2 | O=C(NC[C@H](O)CN1CCc2ccccc2C1)c1ccc2[nH]c3c(c2c1)CCC3 [Compound 8, (S)-N-(3-(3,4-dihydroisoquinolin-2(1H)-yl)-2-hydroxypropyl)-1,2,3,4-tetrahydrocyclopenta[b]indole-7-carboxamide]
7 | 73 ± 4.1 | O=C(NC[C@H](O)CN1CCc2ccccc2C1)c1ccc2[nH]c3c(c2c1)CCCCC3 [Compound 9, (S)-N-(3-(3,4-dihydroisoquinolin-2(1H)-yl)-2-hydroxypropyl)-5,6,7,8,9,10-hexahydrocyclohepta[b]indole-2-carboxamide]
8 | 67 ± 3.5 | CC1CCc2[nH]c3ccc(C(=O)NC[C@H](O)CN4CCc5ccccc5C4)cc3c2C1 (stereo partly drawn) [Compound 11, N-((S)-3-(3,4-dihydroisoquinolin-2(1H)-yl)-2-hydroxypropyl)-3-methyl-2,3,4,9-tetrahydro-1H-carbazole-6-carboxamide]
9 | 58 ± 3.7 | CCC1CCc2[nH]c3ccc(C(=O)NC[C@H](O)CN4CCc5ccccc5C4)cc3c2C1 (stereo partly drawn) [Compound 12, N-((S)-3-(3,4-dihydroisoquinolin-2(1H)-yl)-2-hydroxypropyl)-3-ethyl-2,3,4,9-tetrahydro-1H-carbazole-6-carboxamide]
10 | 70 ± 0.2 | CC(C)n1c2c(c3cc(C(=O)NC[C@H](O)CN4CCc5ccccc5C4)ccc31)CCCC2 [Compound 16, (S)-N-(3-(3,4-dihydroisoquinolin-2(1H)-yl)-2-hydroxypropyl)-9-isopropyl-2,3,4,9-tetrahydro-1H-carbazole-6-carboxamide]
11 | 75 ± 1.6 | CC(C)Cn1c2c(c3cc(C(=O)NC[C@H](O)CN4CCc5ccccc5C4)ccc31)CCCC2 [Compound 17, (S)-N-(3-(3,4-dihydroisoquinolin-2(1H)-yl)-2-hydroxypropyl)-9-isobutyl-2,3,4,9-tetrahydro-1H-carbazole-6-carboxamide]
12 | 60 ± 4.6 | O=C(NC[C@H](O)CN1CCc2ccccc2C1)c1ccc2c(c1)c1c(n2CC2CC2)CCCC1 [Compound 18, (S)-9-(cyclopropylmethyl)-N-(3-(3,4-dihydroisoquinolin-2(1H)-yl)-2-hydroxypropyl)-2,3,4,9-tetrahydro-1H-carbazole-6-carboxamide]
13 | 48 ± 1.2 | CN1CCc2[nH]c3ccc(C(=O)NC[C@H](O)CN4CCc5ccccc5C4)cc3c2C1 [Compound 21, (S)-N-(3-(3,4-dihydroisoquinolin-2(1H)-yl)-2-hydroxypropyl)-2-methyl-2,3,4,5-tetrahydro-1H-pyrido[4,3-b]indole-8-carboxamide]
